The target of test [1] is T1, human HSP90α (Homo sapiens, UniProt P07900).
T1 construct: purchased Stressgen SPP-776F
Description: biochemical. In kind it is binding.

For test [2], the system named is Her-2 in SkBr3 cells. Put plainly: Her-2 depletion in SkBr3 cells (pharmacodynamic marker of cellular efficacy). Type of test: cell-based. The note with it: Homo sapiens, SK-BR-3; SkBr3 cells treated with the inhibitor overnight; read-out: PD (μM), pharmacodynamic EC50, Her-2 depletion. The procedure: FIG. 2. Cellular efficacy of pochoximes A1B5C1D1 (IC50). Depletion of Her-2 in SkBr3 cells were treated treated with the inhibitor for 18 h. […]

Setting [3] is: competition assay, read-out: Measure KD against human HSP90α.

Read-outs that look alike come from different tables or passages of the source.

By EC50 is commonly meant the concentration that produces a half-maximal response. Take `CCCC1CC=CCCC=CC(=NOCC(=O)N2CCCCC2)Cc2cc(O)cc(O)c2C(=O)O1` (stereo not drawn) [Compound A1B1C2D1]: the values for the EC50 in test [1] and in test [2] were 588 nM and greater than 10 µM, respectively.
Turning to `CC1CCCN(C(=O)CON=C2C=CCCC=CCCOC(=O)c3c(O)cc(O)cc3C2)C1` (stereo not drawn) [Compound A1B1C4D3], the figures for the EC50 in test [1] and in test [2] were 60 nM and no more than 0.1 µM, respectively.
The corresponding values for `CCCC1CC=CCCC(C)=CC(=NOCC(=O)N(CC)CC)Cc2cc(O)cc(O)c2C(=O)O1` (stereo not drawn) [Compound A1B3C2D18] are 4660 nM and greater than 10 µM.
The term Kd denotes the equilibrium constant for the complex coming apart. Consider `C[C@@H]1C/C=C/[C@@H](O)C/C=C/C(=NOCC(=O)N2CCCCC2)Cc2c(Cl)c(O)cc(O)c2C(=O)O1` [epi-pochoxime E], for which the Kd in test [1] (setting [3]) turned out to be 38 nM.
Take `CC1CCN(C(=O)CON=C2C=CCCC=CCCOC(=O)c3c(O)cc(O)cc3C2)CC1` [Compound A1B1C4D4]: the EC50 in test [1] was 70 nM; in test [2], no more than 0.5 µM.
For `O=C1OCCC=CCCC=CC(=NOCC(=O)N2CCCC2)Cc2cc(O)cc(O)c21` [Compound A1B1C4D17], the EC50 was 219 nM in test [1] and no more than 0.5 µM in test [2].
Molecule `CCN(CC)C(=O)CON=C1C=CCCC=CCC(C)OC(=O)c2c(O)cc(O)cc2C1` (stereo not drawn) [Compound A1B1C1D18] showed a 50% effective concentration (EC50) in test [1] of 540 nM.
In the case of `CC1C=CCCOC(=O)c2c(O)cc(O)cc2CC(=NOCC(=O)N2CCCCC2)C=CC1` (stereo not drawn) [Compound A1B4C4D1], the EC50 was 21 nM in test [1] and no more than 0.5 µM in test [2].
With `C[C@@H]1C/C=C/[C@H](O)C/C=C/C(=NOCC(=O)N2CCCCC2)Cc2c(Cl)c(O)cc(O)c2C(=O)O1` [pochoxime E], the Kd in test [1] (setting [3]) amounted to 34 nM.
In the case of `CCCC1CC=CCCC(C)=CC(=NOCC(=O)N2CCCCC2)Cc2cc(O)cc(O)c2C(=O)O1` (stereo not drawn) [Compound A1B3C2D1], the half-maximal effective concentration (EC50) in test [1] is 196 nM; in test [2], no more than 1 µM.
On to `CC1C=CCC(C)OC(=O)c2c(O)cc(O)c(Cl)c2CC(=NOCC(=O)N2CCCCC2)C=CC1` (stereo not drawn) [Compound A2B4C1D1], for which the results for the 50% effective concentration (EC50) in test [1] and in test [2] were 154 nM and no more than 1 µM, respectively.
The corresponding values for `COC(=O)CON=C1C=CCCC=CCCOC(=O)c2c(O)cc(O)cc2C1` [Compound A1B1C4D26] are 372 nM and no more than 10 µM.
Consider `CC1CC=CCCC=CC(=NOCC(=O)N2CCCCC2)Cc2c(Cl)c(O)cc(O)c2C(=O)O1` (stereo not drawn) [pochoxime D], for which the Kd in test [1] (setting [3]) stood at 22 nM.
As for `CC1C=CCCOC(=O)c2c(O)cc(O)c(Cl)c2CC(=NOCC(=O)N2CCCCC2)C=CC1` (stereo not drawn) [Compound A2B4C4D1], the EC50 in test [1] is 170 nM; in test [2] it was no more than 5 µM.
The corresponding values for `O=C1OCCC=CCCC=CC(=NOCC(=O)N2CCC(Cc3ccccc3)CC2)Cc2cc(O)cc(O)c21` [Compound A1B1C4D8] are 5760 nM and greater than 10 µM.
`O=C1OCCC=CCCC=CC(=NOCC(=O)N2CCCCCC2)Cc2cc(O)cc(O)c21` [Compound A1B1C4D23]: a half-maximal effect in test [1] (EC50) was put at 140 nM.
In test [1], `[N-]=[N+]=NCC1CC=CCCC=CC(=NOCC(=O)N2CCCCC2)Cc2c(Cl)c(O)cc(O)c2C(=O)O1` (stereo not drawn) [Compound A2B1C7D1] registered a concentration for a half-maximal effect (EC50) of 79 nM.
As for `O=C(CON=C1C=CCCC=CCCOC(=O)c2c(O)cc(O)cc2C1)NCc1ccccc1` [Compound A1B1C4D22], the EC50 in test [1] was 57 nM; in test [2], no more than 1 µM.
As to `CC(C)N(C(=O)CON=C1C=CCCC=CCCOC(=O)c2c(O)cc(O)cc2C1)C(C)C` [Compound A1B1C4D20], the concentration for a half-maximal effect (EC50) in test [1] was 162 nM; in test [2], no more than 1 µM.
Regarding `CCN(CC)C(=O)CON=C1C=C(C)CCC=CCC(C)OC(=O)c2c(O)cc(O)cc2C1` (stereo not drawn) [Compound A1B3C1D18], the EC50 was 200 nM in test [1] and no more than 1 µM in test [2].
As for `CN1CCN(C(=O)CON=C2C=CCCC=CCCOC(=O)c3c(O)cc(O)cc3C2)CC1` [Compound A1B1C4D13], the EC50 in test [1] was greater than 10000 nM.
The same measure, in the same setting: then `CCCC1CC=CC(C)CC=CC(=NOCC(=O)N2CCCCC2)Cc2cc(O)cc(O)c2C(=O)O1` (stereo not drawn) [Compound A1B4C2D1], with 811 nM.
With `C[C@@H]1C/C=C/[C@H](O)C/C=C/C(=NOCC(=O)N2CCCCC2)Cc2cc(O)cc(O)c2C(=O)O1` [pochoxime F], the Kd in test [1] (setting [3]) worked out at 22 nM.
As for `O=C1OCCC=CCCC=CC(=NOCC(=O)N(Cc2ccccc2)Cc2ccccc2)Cc2cc(O)cc(O)c21` [Compound A1B1C4D21], the results for the EC50 in test [1] and in test [2] were 2990 nM and greater than 10 µM, respectively.
On to `C[C@@H]1C/C=C/[C@H](N)C/C=C/C(=NOCC(=O)N2CCCCC2)Cc2cc(O)cc(O)c2C(=O)O1` [aminopochoxime E], for which the Kd in test [1] (setting [3]) came to 229 nM.
Turning to `CCN(CC)C(=O)CON=C1C=CCCC=CCCOC(=O)c2c(O)cc(O)cc2C1` [Compound A1B1C4D18], the EC50 in test [1] is 196 nM; in test [2], no more than 1 µM.
As to `CC1C=CC(C)N1C(=O)CON=C1C=CCCC=CCCOC(=O)c2c(O)cc(O)cc2C1` (stereo not drawn) [Compound A1B1C4D16], the EC50 is 119 nM in test [1] and no more than 1 µM in test [2].
`CC(C)CN(CC(C)C)C(=O)CON=C1C=CCCC=CCCOC(=O)c2c(O)cc(O)cc2C1` [Compound A1B1C4D19]: the values for the EC50 in test [1] and in test [2] were 94 nM and no more than 5 µM, respectively.
In turn, `CC1CCCCN1C(=O)CON=C1C=CCCC=CCCOC(=O)c2c(O)cc(O)cc2C1` (stereo not drawn) [Compound A1B1C4D2] showed an EC50 in test [1] of 886 nM.
Consider `CC(=O)N[C@H]1/C=C/C[C@@H](C)OC(=O)c2c(O)cc(O)cc2CC(=NOCC(=O)N2CCCCC2)/C=C/C1` [As-15(6-R)], for which the Kd in test [1] (setting [3]) was 343 nM.
Consider `CC1=CC(=NOCC(=O)N2CCCCC2)Cc2cc(O)cc(O)c2C(=O)OCCC=CCC1` [Compound A1B3C4D1], for which the EC50 was 46 nM in test [1] and no more than 0.5 µM in test [2].
The corresponding values for `CCCC1CC=CC(C)CC=CC(=NOCC(=O)N2CCCCC2)Cc2c(Cl)c(O)cc(O)c2C(=O)O1` (stereo not drawn) [Compound A2B4C2D1] are 1750 nM and no more than 10 µM.
Take `CC1C=CCCCOC(=O)c2c(O)cc(O)c(Cl)c2CC(=NOCC(=O)N2CCCCC2)C=CC1` (stereo not drawn) [Compound A2B4C5D1]: the EC50 in test [1] is 1720 nM; in test [2], greater than 10 µM.
With `CCC1CCCCN1C(=O)CON=C1C=CCCC=CCCOC(=O)c2c(O)cc(O)cc2C1` (stereo not drawn) [Compound A1B1C4D5], the EC50 was 243 nM in test [1] and less than 1 µM in test [2].
In the case of `CCCC1CC=CCCC(C)=CC(=NOCC(=O)N(CC)CC)Cc2c(Cl)c(O)cc(O)c2C(=O)O1` (stereo not drawn) [Compound A2B3C2D18], the results for the EC50 in test [1] and in test [2] were 900 nM and greater than 10 µM, respectively.
Turning to `CC1C=CCC(C)OC(=O)c2c(O)cc(O)cc2CC(=NOCC(=O)N2CCCCC2)C=CC1` (stereo not drawn) [Compound A1B4C1D1], in test [1], the EC50 stood at 32 nM.
For the molecule `O=C1OCCC=CCCC=CC(=NOCC(=O)N2CCSCC2)Cc2cc(O)cc(O)c21` [Compound A1B1C4D11], the EC50 in test [1] is 70 nM; in test [2], no more than 0.5 µM.
`O=C1OCCC=CC(O)CC=CC(=NOCC(=O)N2CCCCC2)Cc2c(Cl)c(O)cc(O)c21` (stereo not drawn) [Compound A2B5C4D1]: in test [1], a half-maximal response (EC50) required 18 nM.
As to `O=C1OCCC=CCCC=CC(=NOCC(=O)N2CCC(c3ccccc3)CC2)Cc2cc(O)cc(O)c21` [Compound A1B1C4D7], the EC50 was 2240 nM in test [1] and greater than 10 µM in test [2].
The corresponding values for `CC1CC=CCCC=CC(=NOCC(=O)N2CCCCC2)Cc2cc(O)cc(O)c2C(=O)O1` (stereo not drawn) [Compound A1B1C1D1] are 34 nM and no more than 5 µM.
The corresponding values for `O=C1NCCC=CCCC=CC(=NOCC(=O)N2CCCCC2)Cc2c(Cl)c(O)cc(O)c21` [Compound A2B1C3D1] are 198 nM and no more than 1 µM.
As for `C[C@@H]1C/C=C/[C@@H](O)C/C=C/C(=NOCC(=O)N2CCCCC2)Cc2cc(O)cc(O)c2C(=O)O1` [epi-pochoxime F], the Kd in test [1] (setting [3]) worked out at 14 nM.
As to `CC1CCCC(C)N1C(=O)CON=C1C=CCCC=CCCOC(=O)c2c(O)cc(O)cc2C1` (stereo not drawn) [Compound A1B1C4D6], the 50% effective concentration (EC50) in test [1] is 238 nM; in test [2] it was less than 5 µM.
On to `CC1CC=CC(O)CC=CC(=NOCC(=O)N2CCCCC2)Cc2c(Cl)c(O)cc(O)c2C(=O)O1` (stereo not drawn) [Compound A2B5C1D1], for which the half-maximal effective concentration (EC50) in test [1] worked out at 10 nM.
In the case of `CCCN(CCC)C(=O)CON=C1C=CCCC=CCCOC(=O)c2c(O)cc(O)cc2C1` [Compound A1B1C4D25], the figures for the EC50 in test [1] and in test [2] were 116 nM and no more than 1 µM, respectively.
With `CC1CC=CC(NC(=O)CSC2OC(CO)C(O)C(O)C2O)CC=CC(=NOCC(=O)N2CCCCC2)Cc2cc(O)cc(O)c2C(=O)O1` (stereo not drawn) [As-14(6-R)], binding in test [1] (Measure KD against human HSP90α (nM)) was put at a Kd of 90 nM.
In the case of `CC1CC=CC(N)CC=CC(=NOCC(=O)N2CCCCC2)Cc2cc(O)cc(O)c2C(=O)O1` (stereo not drawn) [epi-aminopochoxime E], the Kd in test [1] (setting [3]) amounted to 34 nM.
Consider `O=C(CON=C1C=CCCC=CCCOC(=O)c2c(O)cc(O)cc2C1)NC1CCCCC1` [Compound A1B1C4D24], for which the EC50 in test [1] is 155 nM; in test [2], no more than 5 µM.
The corresponding values for `C=CC1=CCCC=CC(=NOCC(=O)N2CCCCC2)Cc2c(Cl)c(O)cc(O)c2C(=O)OCC1` [Compound A2B1C8D1] are 432 nM and no more than 1 µM.
For `CC1CN(C(=O)CON=C2C=CCCC=CCCOC(=O)c3c(O)cc(O)cc3C2)CC(C)O1` (stereo not drawn) [Compound A1B1C4D14], the EC50 in test [1] was 337 nM; in test [2], no more than 5 µM.
Regarding `O=C1OCCC=CCCC=CC(=NOCC(=O)N2CC=CC2)Cc2cc(O)cc(O)c21` [Compound A1B1C4D15], the EC50 is 128 nM in test [1] and no more than 1 µM in test [2].
In test [1], `CC1CC=CCCC=CC(=NOCC(=O)N2CCCCC2)Cc2c(Cl)c(O)cc(O)c2C(=O)O1` (stereo not drawn) [Compound A2B1C1D1] displayed an EC50 of 39 nM.
As for `O=C1OCCC=CCCC=CC(=NOCC(=O)N2CCNCC2)Cc2cc(O)cc(O)c21` [Compound A1B1C4D12], the figures for the EC50 in test [1] and in test [2] were 640 nM and no more than 5 µM, respectively.
The corresponding values for `O=C1OCCC=CCCC=CC(=NOCC(=O)N2CCOCC2)Cc2cc(O)cc(O)c21` [Compound A1B1C4D10] are 124 nM and no more than 0.5 µM.
In test [1], `CC1CC=CC(O)CC=CC(=NOCC(=O)N2CCCCC2)Cc2cc(O)cc(O)c2C(=O)O1` (stereo not drawn) [Compound A1B5C1D1] had an EC50 of 20 nM.

(Values after patent US20150374680A1, “POCHOXIME CONJUGATES USEFUL FOR THE TREATMENT OF HSP90 RELATED PATHOLOGIES” (UNIVERSITE DE STRASBOURG, priority 2010, published 2015).)
